Data published in patent US10647680B2, “Urea compound, preparation method therefor and medical use thereof” (Ancureall Pharmaceutical (Shanghai) Co., Ltd., priority 2016, dated 2020).

How the values were obtained:
Solubility test = assay type: physicochemical; conditions: in water at 25° C.±2° C.
Experimental: The fine powder of the test sample was weighed into an appropriate amount of water at 25° C.±2° C. and shaken vigorously for 30 seconds every 5 minutes so that it was fully dissolved within 30 minutes. If no visible solute particles were observed, it was considered completely dissolved. “Readily soluble” means that 1 g of the test sample could be dissolved in 1-10 ml of water; and “soluble” means that 1 g of the test sample could be dissolved in 10-30 ml of water; “slightly soluble” means that 1 g of the test sample could be dissolved in 30-100 ml of water; and “sparingly soluble” means that 1 g of the test sample could be dissolved in 100-1,000 ml of water; “nearly insoluble or insoluble” means that 1 g of the test sample could not be completely dissolved in 10,000 ml of water.

[1] = tested on: MV4-11 cell Bab/c nude mouse tumor model; assay: In vivo tumor growth inhibition experiment; conditions: for effect on body weight of nude mice: compared with the solvent control group
Experimental: Xenotransplantation in immunodeficient mice is an effective model for testing in vivo antitumor activity of compounds in animals. Bab/c immunodeficient mice are one of the most commonly used tumor cell xenografts. […] Log-phase MV4-11 cells were collected in a 50 ml of centrifuge tube (Corning), centrifuged at 1,700 rpm for 3 minutes, and the supernatant was discarded. Cells were suspended in a 50 ml 1×RPMI 1640 serum-free medium, and centrifuged, the supernatant was discarded and resuspension was performed. The cells were counted (Countess® Automated Cell Counting Apparatus, Invitrogen), prepared into […], placed on ice, and inoculated subcutaneously with 10×10^6 (0.2 ml) to the right back of 6-8-week female Bab/c nude mice (about 20 g in weight) (purchased from Shanghai Sippr-BK Experimental Animal Co., Ltd., Animal Center of Shanghai University of Traditional Chinese Medicine, approved by Ethical Committee of Shanghai University of Traditional Chinese Medicine). When the tumor grew to a size of 100-200 mm^3, animals were randomly grouped and earmarked and weighed. The treatment group consisted of 3 to 6 nude mice in each group. Drugs were prepared into different concentrations of milky suspension with a solvent PTP solution (30% polyethylene glycol 400, 0.5% Tween-80, 2.5% propylene glycol). Animals were given by oral gavage continuously at a concentration of 0.1 ml/10 g body weight, with a dose range of 0.1-200 mg/kg (the purity of the test compound of the present invention was 99% or more, and the proportion of single impurity was not more than 0.1%). In the control group, 3 to 6 nude mice in each group were given the same volume (0.1 ml/10 g body weight) of solvent PTP solution, and the tumors were measured 3 to 4 times per week. When the average tumor volume in the control group reached 1500 mm^3, or on the 28th day of administration, the experiment ended, then the tumor was weighed and subjected to molecular pathology assay.
The tumor volume was calculated as V=½a×b^2, where a is the length and b is the width. The relative tumor volume (RTV) was calculated based on the measured results and the formula was RTV=Vt/V0, where V0 is the measured tumor volume when administered in divided cages (i.e., do), and Vt is the tumor volume at each measurement.

[2] = Stability test: high temperature test (60° C.); assay type: physicochemical; conditions: exposed at 60° C. for 10 days, HPLC
Experimental: The test samples were placed into an integrated drug stability test chamber (YSEI) in an exposed way at 60° C. for 10 days. Samples were taken on the 5th and 10th days and tested according to the drug stability test indices.
(§1) An appropriate amount of test samples was taken and dissolved in acetonitrile-water (1:1), and quantitatively diluted to a solution of about 0.3 mg/ml. 20 ul of solution was injected into a liquid chromatograph (Agilent 1260 Infinity), the chromatogram was then recorded and calculated according to the percentage area method. The mobile phase was a phosphate buffer and acetonitrile aqueous solution, and then a gradient elution was carried out.

[3] = Stability test: high humidity test (90%); assay type: physicochemical; conditions: 25° C., relative humidity 90%±5%, 10 days, HPLC
Experimental: The test samples were placed into an integrated drug stability test chamber (YSEI) in an exposed way at 25° C. and relative humidity of 90%±5% for 10 days. Samples were taken on the 5th and 10th days and tested according to the drug stability test indices.
as §1

[4] = Stability test: intense light test (4500LX); assay type: physicochemical; conditions: 4500LX±500LX light for 10 days, HPLC
Experimental: The test samples were placed into an integrated drug stability test chamber (YSEI) in an exposed way under 4500LX±500LX light for 10 days. Samples were taken on the 5th and 10th days and tested according to the drug stability test indices.
as §1

[5] = drug dose 2.5 mg/kg, 15th day of administration

Row | Structure (SMILES) | Tumor Inhibition Rate (%) ([1]; Dose 2.5 mg/kg, Day 6) | Tumor Inhibition Rate (%) ([1]; Dose 2.5 mg/kg, Day 10) | Tumor Inhibition Rate (%) ([1]; Dose 2.5 mg/kg, Day 15) | Tumor Inhibition Rate (%) ([1]; Dose 2.5 mg/kg, Day 20) | Tumor Inhibition Rate (%) ([1]; Dose 2.5 mg/kg, Day 28) | Tumor Inhibition Rate (%) ([1]; Dose 5 mg/kg, Day 6) | Tumor Inhibition Rate (%) ([1]; Dose 5 mg/kg, Day 10) | Tumor Inhibition Rate (%) ([1]; Dose 5 mg/kg, Day 15) | Tumor Inhibition Rate (%) ([1]; Dose 5 mg/kg, Day 20) | Tumor Inhibition Rate (%) ([1]; Dose 5 mg/kg, Day 28) | Tumor Inhibition Rate (%) ([1]; Dose 10 mg/kg, Day 6) | Tumor Inhibition Rate (%) ([1]; Dose 10 mg/kg, Day 10) | Tumor Inhibition Rate (%) ([1]; Dose 10 mg/kg, Day 15) | Tumor Inhibition Rate (%) ([1]; Dose 10 mg/kg, Day 20) | Tumor Inhibition Rate (%) ([1]; Dose 10 mg/kg, Day 28) | Tumor Inhibition Rate (%) ([1]; Dose 25 mg/kg, Day 6) | Tumor Inhibition Rate (%) ([1]; Dose 25 mg/kg, Day 10) | Tumor Inhibition Rate (%) ([1]; Dose 25 mg/kg, Day 15) | Tumor Inhibition Rate (%) ([1]; Dose 25 mg/kg, Day 20) | Tumor Inhibition Rate (%) ([1]; Dose 25 mg/kg, Day 28) | other results
1 | COc1ccc2c(c1)ncn2-c1ccc(NC(=O)Nc2cc(C(C)(C)C)n[nH]2)cc1 [Compound 71, 1-(5-tert-butyl-2H-pyrazol-3-yl)-3-[4-(5-methoxyl-benzimidazol-1-yl)-phenyl]-urea] | 63.7 | 76.8 | 77.9 | 80.5 | 83.8 | 84.5 | 94.3 | 98.8 | 100.0 | 100 | 87.2 | 96.4 | 99.8 | 100 | 100 | 90.0 | 98.0 | 100.0 | 100.0 | 100 | Solubility (Solubility test; listed as 71 Free base): insoluble (“nearly insoluble or insoluble” means that 1 g of the test sample could not be completely dissolved in 10,000 ml of water); Tumor Inhibition Rate (%) ([1]; Dose 0.5 mg/kg, Day 6): 37.2%; Tumor Inhibition Rate (%) ([1]; Dose 0.5 mg/kg, Day 10): 34.5%; Tumor Inhibition Rate (%) ([1]; Dose 0.5 mg/kg, Day 15): 32.6%; Tumor Inhibition Rate (%) ([1]; Dose 0.5 mg/kg, Day 20): 36.9%; Tumor Inhibition Rate (%) ([1]; Dose 0.5 mg/kg, Day 28): 37.3%; Tumor Inhibition Rate (%) ([1]; Dose 1 mg/kg, Day 6): 62.2%; Tumor Inhibition Rate (%) ([1]; Dose 1 mg/kg, Day 10): 64.5%; Tumor Inhibition Rate (%) ([1]; Dose 1 mg/kg, Day 15): 69.6%; Tumor Inhibition Rate (%) ([1]; Dose 1 mg/kg, Day 20): 65.4%; Tumor Inhibition Rate (%) ([1]; Dose 1 mg/kg, Day 28): 66.6%; Tumor Inhibition Rate (%) ([1]; Dose 50 mg/kg, Day 6): 91.6%; Tumor Inhibition Rate (%) ([1]; Dose 50 mg/kg, Day 10): 99.0%; Tumor Inhibition Rate (%) ([1]; Dose 50 mg/kg, Day 15): 100.0%; Tumor Inhibition Rate (%) ([1]; Dose 200 mg/kg, Day 6): 93.1%; Tumor Inhibition Rate (%) ([1]; Dose 200 mg/kg, Day 10): 100.0%; Tumor Inhibition Rate (%) ([1]; Dose 200 mg/kg, Day 15): 100.0%; tumor growth inhibitory activity compared with compound 68 ([1]; MV4-11 xenograft): stronger tumor growth inhibitory activity; tumor growth inhibitory activity ([1]; dose of 1 to 2.5 mg/kg, oral gavage): obvious tumor growth inhibitory activity; effect on body weight of nude mice ([1]; dose ≤25 mg/kg): no significant effect
2 | COCCOc1ccc2c(c1)ncn2-c1ccc(NC(=O)Nc2cc(C(C)(C)C)n[nH]2)cc1 [Compound 77, 1-(5-tert-butyl-2H-pyrazol-3-yl)-3-{4-[5-(2-methoxyl-ethoxyl)-benzimidazol-1-yl]-phenyl}-urea] | 79.2 | 93.2 | 100 | 100 | – | – | – | – | – | – | – | – | – | – | – | – | – | – | – | – | Solubility (Solubility test; listed as 77 Free base): insoluble (“nearly insoluble or insoluble” means that 1 g of the test sample could not be completely dissolved in 10,000 ml of water); tumor outcome [1, 5]: tumor disappears completely; effect on body weight of nude mice ([1]; drug dose 2.5 mg/kg): no significant effect
3 | CC(C)(C)c1cc(NC(=O)Nc2ccc(-n3cnc4ccccc43)cc2)[nH]n1 [Compound 68, 1-(4-benzimidazol-1-yl-phenyl)-3-(5-tert-butyl-2H-pyrazol-3-yl)-urea] | 14.6 | 16.2 | 17.8 | 37.5 | 35.3 | 67.9 | 71.6 | 58.5 | 50.1 | 62.5 | 68.9 | 81.7 | 90.2 | 94.8 | 98.7 | 86.0 | 92.5 | 93.4 | 96.7 | 100.0 | Tumor Inhibition Rate (%) ([1]; Dose 50 mg/kg, Day 6): 92.8%; Tumor Inhibition Rate (%) ([1]; Dose 50 mg/kg, Day 10): 98.7%; Tumor Inhibition Rate (%) ([1]; Dose 50 mg/kg, Day 15): 100.0%; Tumor Inhibition Rate (%) ([1]; Dose 100 mg/kg, Day 6): 94.2%; Tumor Inhibition Rate (%) ([1]; Dose 100 mg/kg, Day 10): 100.0%; Tumor Inhibition Rate (%) ([1]; Dose 100 mg/kg, Day 15): 100.0%; Tumor Inhibition Rate (%) ([1]; Dose 200 mg/kg, Day 6): 98.9%; Tumor Inhibition Rate (%) ([1]; Dose 200 mg/kg, Day 10): 100.0%; Tumor Inhibition Rate (%) ([1]; Dose 200 mg/kg, Day 15): 100.0%; effect on body weight of nude mice ([1]; dose ≤25 mg/kg): no significant effect; inhibition rate of tumor growth ([1]; dose ≥25 mg/kg, oral gavage, 6th day after administration): more than 80%; tumor outcome ([1]; dose ≥25 mg/kg, oral gavage, 28th day): tumor disappears completely
4 | CC(C)(C)c1cc(NC(=O)Nc2ccc(-n3cnc4cc(OCCN5CCOCC5)ccc43)cc2)no1 [Compound 16, 1-(5-tert-butyl-isoxazol-3-yl)-3-{4-[5-(2-morpholin-4-yl-ethoxyl)-benzimidazol-1-yl]-phenyl}-urea] | 82.4 | 96.8 | 100 | 100 | – | – | – | – | – | – | – | – | – | – | – | – | – | – | – | – | Solubility (Solubility test; listed as 16 Free base): insoluble (“nearly insoluble or insoluble” means that 1 g of the test sample could not be completely dissolved in 10,000 ml of water); tumor outcome [1, 5]: tumor disappears completely; effect on body weight of nude mice ([1]; drug dose 2.5 mg/kg): no significant effect
5 | CC(C)(C)c1cc(NC(=O)Nc2ccc(-n3cnc4cc(OCCN5CCOCC5)ccc43)cc2)[nH]n1 [Compound 89, 1-(5-tert-butyl-2H-pyrazol-3-yl)-3-{4-[5-(2-morpholin-4-yl-ethoxyl)-benzimidazol-1-yl]-phenyl}-urea] | 60.7 | 79.4 | 84.7 | 87.2 | – | – | – | – | – | – | – | – | – | – | – | – | – | – | – | – | High temperature (60° C.) [2]: stable; High Humidity (90%) [3]: stable; Solubility (Solubility test; listed as 89 Free base): insoluble (“nearly insoluble or insoluble” means that 1 g of the test sample could not be completely dissolved in 10,000 ml of water); Lighting (4500 LX) [4]: stable
